In PubChem BioAssay AID248 (DTP/NCI, 2004):
Toxic doses and inconclusive results are not listed. No stated cut-off is given here; in the data, active means T/C of 150% or more; inactive means T/C below 125%.

System: L1210 leukemia ip in BDF1 mice, survival T/C
Assay: NCI In Vivo Anticancer Drug Screen. Data for tumor model L1210 Leukemia (intraperitoneal) in B6D2F1 (BDF1) mice
Conditions: endpoint: mean survival time, higher = longer survival
Outline: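 In this screen, tumor-bearing mice given compound are compared to those given vehicle, and their survival values are reported as a treated-to-control quotient.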

[1] = dose: 100.0 mg/kg/injection, schedule: Q01DX001 (ip), vehicle: saline
[2] = dose: 200.0 mg/kg/injection, schedule: Q01DX001 (ip), vehicle: saline

Measured: T/C

Cc1ccccc1NC(=O)NCCCl
inactive: dose: 100.0 mg/kg/injection, schedule: Q04DX003 (ip), vehicle: saline with Tween-80 88 % of control | dose: 200.0 mg/kg/injection, schedule: Q04DX003 (ip), vehicle: saline with Tween-80 88 % of control | dose: 400.0 mg/kg/injection, schedule: Q04DX003 (ip), vehicle: saline with Tween-80 98 % of control

c1ccc(-c2ccc(-c3c(-c4ccccc4)ccc(-c4ccccc4)c3-c3ccccc3)cc2)cc1
inactive: dose: 100.0 mg/kg/injection, schedule: Q01DX001 (ip), vehicle: saline with Tween-80 104 % of control | dose: 200.0 mg/kg/injection, schedule: Q01DX001 (ip), vehicle: saline with Tween-80 104 % of control | dose: 400.0 mg/kg/injection, schedule: Q01DX001 (ip), vehicle: saline with Tween-80 112 % of control

CCOC(=O)CCc1c(C(=O)OCC)[nH]c(C)c1C(=O)OCc1ccccc1
inactive: dose: 100.0 mg/kg/injection, schedule: Q04DX003 (ip), vehicle: Klucel (hydroxypropylcellulose) (HPC) 100 % of control | dose: 200.0 mg/kg/injection, schedule: Q04DX003 (ip), vehicle: Klucel (hydroxypropylcellulose) (HPC) 101 % of control | dose: 400.0 mg/kg/injection, schedule: Q04DX003 (ip), vehicle: Klucel (hydroxypropylcellulose) (HPC) 108 % of control

CC1(C)CCC2CCCCC2O1 (configuration not stated)
inactive: [1] 102 % of control | [2] 98 % of control | dose: 400.0 mg/kg/injection, schedule: Q01DX001 (ip), vehicle: saline 96 % of control

CCCCCCCCCCCCC(=O)N1CCCCCC1
inactive: dose: 100.0 mg/kg/injection, schedule: Q04DX002 (ip), vehicle: saline 102 % of control | dose: 200.0 mg/kg/injection, schedule: Q04DX002 (ip), vehicle: saline 102 % of control | dose: 400.0 mg/kg/injection, schedule: Q04DX002 (ip), vehicle: saline 91 % of control

CC(C)(CNC1=NCCO1)NC1=NCCO1
inactive: dose: 50.0 mg/kg/injection, schedule: Q01DX009 (ip), vehicle: saline 105 % of control | dose: 100.0 mg/kg/injection, schedule: Q01DX009 (ip), vehicle: saline 107 % of control | dose: 200.0 mg/kg/injection, schedule: Q01DX009 (ip), vehicle: saline 103 % of control

COc1cc(N(CCCl)CCCl)ccc1NC(=O)c1ccccc1
inactive: dose: 100.0 mg/kg/injection, schedule: Q01DX001 (ip), vehicle: other 98 % of control | dose: 200.0 mg/kg/injection, schedule: Q01DX001 (ip), vehicle: other 98 % of control | dose: 400.0 mg/kg/injection, schedule: Q01DX001 (ip), vehicle: other 109 % of control

CCCCCCCC/C=C\CCCCCCCC(=O)NCCCOCCOCCOCC
inactive: dose: 75.0 mg/kg/injection, schedule: Q01DX009 (ip), vehicle: saline 97 % of control | dose: 75.0 mg/kg/injection, schedule: Q04DX003 (ip), vehicle: saline 94 % of control | dose: 150.0 mg/kg/injection, schedule: Q01DX009 (ip), vehicle: saline 101 % of control | dose: 150.0 mg/kg/injection, schedule: Q04DX003 (ip), vehicle: saline 90 % of control | dose: 300.0 mg/kg/injection, schedule: Q01DX009 (ip), vehicle: saline 87 % of control | dose: 300.0 mg/kg/injection, schedule: Q04DX003 (ip), vehicle: saline 95 % of control

Nc1ccc2c(ccc3cccc[n+]32)c1
inactive: [1] 105 % of control | [2] 108 % of control

CC(=O)Oc1ccc(NC(=O)c2ccccc2)c2ccccc12
inactive: dose: 100.0 mg/kg/injection, schedule: Q01DX001 (ip), vehicle: carboxymethylcellulose (CMC) 110 % of control | dose: 200.0 mg/kg/injection, schedule: Q01DX001 (ip), vehicle: carboxymethylcellulose (CMC) 100 % of control | dose: 400.0 mg/kg/injection, schedule: Q01DX001 (ip), vehicle: carboxymethylcellulose (CMC) 94 % of control

O=C1NC(=O)C(c2ccccc2)(C2CCCC2)N1 (configuration not stated)
inactive: dose: 50.0 mg/kg/injection, schedule: Q01DX009 (ip), vehicle: Klucel (hydroxypropylcellulose) (HPC) 93 % of control | dose: 100.0 mg/kg/injection, schedule: Q01DX009 (ip), vehicle: Klucel (hydroxypropylcellulose) (HPC) 98 % of control | dose: 200.0 mg/kg/injection, schedule: Q01DX009 (ip), vehicle: Klucel (hydroxypropylcellulose) (HPC) 96 % of control

S=c1ccnc[nH]1
inactive: dose: 100.0 mg/kg/injection, schedule: Q01DX Z (ip), vehicle: methylcellulose (MC) 87 % of control | dose: 200.0 mg/kg/injection, schedule: Q01DX Z (ip), vehicle: methylcellulose (MC) 88 % of control
